The values below are quoted from earlier work in patent US20230149268A1, “MULTI-PHASE COSMETIC COMPOSITION COMPRISING AT LEAST TWO IMMISCIBLE OILY PHASES” (CHANEL PARFUMS BEAUTE, priority 2020, published 2023).

For the data set the following is noted: Table 1, known values, fatty acids.
Turning to `CCCCCC[C@@H](O)C/C=C\CCCCCCCC(=O)O` [Ricinoleic acid], the δd is 16.5, the δh is given as 8.2 and the δp is listed as 4.4.
With `CCCCCCCC(=O)O` [Caprylic acid C8:0, Caprylic acid], the δd is on record as 16.3, the δh is on record as 10.1 and the δp was 5.2.
Turning to `CCCCCCCC/C=C\CCCCCCCC(=O)O` [Oleic acid C18:1, Oleic acid], the δd is 16.4, the δh is on record as 5.5 and the δp is 3.
Regarding `CCCCCCCCCCCCCCCCCCCCCC(=O)O` [Behenic acid C22:0, Behenic acid], the δd is on record as 16.2, the δh is 4.3 and the δp is listed as 2.3.
Turning to `CCCCCCCCCCCC(=O)O` [Lauric acid C12:0, Lauric acid], the δd is reported as 16.3, the δh was 7.5 and the δp was 4.
In the case of `CCCCCCCCCCCCCCCCCCCC(=O)O` [Arachidic acid C20:0, Arachidic acid], the δd was 16.1, the δh is given as 4.7 and the δp is 2.7.
Consider `CCCCCCCCCCCCCCCC(=O)O` [Palmitic acid C16:0, Palmitic acid], for which the δd is reported as 16.2, the δh is 5.8 and the δp is listed as 3.3.
For `CCCCCCCCCCCCCCCCC(=O)O` [Margaric acid C17:0, Margaric acid], the δd is recorded as 16.2, the δh was 5.4 and the δp is reported as 2.8.
As for `CCCCCCCC/C=C\CCCCCCCCCCCC(=O)O` [Erucic acid C22:1, Erucic acid], the δd was 16.3, the δh is 4.5 and the δp was 2.6.
As for `CCCCCCCCCCCCCCCCCC(=O)O` [Stearic acid C18:0, Stearic acid], the δd is recorded as 16.2, the δh is given as 5.2 and the δp is listed as 2.8.
Take `CCCCCCCCCCCCCCCCCCCCCCCC(=O)O` [Lignoceric acid C24:0, Lignoceric acid]: the δd is reported as 16.1, the δh is 3.9 and the δp was 2.4.
For the compound `CCCCCCCCCC(=O)O` [Capric acid C10:0, Capric acid], the δd is given as 16.3, the δh is recorded as 8.6 and the δp was 4.2.
Consider `CCCCC/C=C\C/C=C\CCCCCCCC(=O)O` [Linoleic acid C18:2, Linoleic acid], for which the δd is recorded as 16.7, the δh is 6.1 and the δp is 3.1.
In the case of `CCCCCC/C=C\CCCCCCCC(=O)O` [Palmitoleic acid C16:1, Palmitoleic acid], the δd is given as 16.5, the δh was 6.3 and the δp is reported as 3.4.
For `CCCCCCCCCCCCCC(=O)O` [Myristic acid C14:0, Myristic acid], the δd is listed as 16.3, the δh is listed as 6.6 and the δp is recorded as 3.3.
Take `CCCCCCCCCC/C=C\CCCCCCCC(=O)O` [Gadoleic acid C20:1, Gadoleic acid]: the δd is listed as 16.4, the δh is recorded as 5.1 and the δp was 2.9.
